We go through 13 compounds from ChEMBL document CHEMBL5352431 (Eur J Med Chem, 2022).

For assay [1], the target named is T1, Melatonin receptor type 1A (Homo sapiens, UniProt P48039). As to the kind of experiment: Displacement of 2-[125I]iodoMLT from human MT1 receptor expressed in mouse NIH3T3 cells incubated for 90 mins by Cheng-Prusoff equation analysis. Format: cell-based.
For assay [2], the target named is T2, Melatonin receptor type 1B (Homo sapiens, UniProt P49286).
T2 sequence (P49286 whole entry): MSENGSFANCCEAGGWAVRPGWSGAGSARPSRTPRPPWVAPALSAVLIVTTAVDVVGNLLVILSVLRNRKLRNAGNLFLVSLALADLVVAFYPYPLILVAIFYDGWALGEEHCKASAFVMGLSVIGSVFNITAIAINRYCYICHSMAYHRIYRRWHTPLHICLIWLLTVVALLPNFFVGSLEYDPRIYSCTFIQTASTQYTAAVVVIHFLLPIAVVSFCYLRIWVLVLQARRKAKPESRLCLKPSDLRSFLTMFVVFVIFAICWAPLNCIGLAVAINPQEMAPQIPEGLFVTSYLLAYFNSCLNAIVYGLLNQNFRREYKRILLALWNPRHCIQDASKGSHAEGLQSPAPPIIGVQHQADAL
Description: Displacement of 2-[125I]iodoMLT from human MT2 receptor expressed in mouse NIH3T3 cells incubated for 90 mins by Cheng-Prusoff equation analysis. Format: cell-based.

The target of assay [3] is T1, Melatonin receptor type 1A. As to the kind of experiment: Displacement of 2-[125I]iodoMLT from human MT1 receptor stably expressed in CHO cells incubated for 60 mins by Cheng-Prusoff equation analysis. Format: cell-based.
Assay [4] addresses T1, Melatonin receptor type 1A. As to the kind of experiment: Binding affinity to MT1 receptor (unknown origin) assessed as inhibition constant.
Assay [5] addresses T2, Melatonin receptor type 1B. Description: Binding affinity to MT2 receptor (unknown origin) assessed as inhibition constant.
Assay [6] addresses T1, Melatonin receptor type 1A. Description: Displacement of 2-[125I]iodoMLT from recombinant human MT1 receptor expressed in African green monkey COS-7 cells incubated for 1.5 hrs by Cheng-Prusoff equation analysis. Format: cell-based.
For assay [7], the target named is T1, Melatonin receptor type 1A. Description: Displacement of 2-[125I]iodoMLT from human MT1 receptor stably expressed in CHO cells by Cheng-Prusoff equation analysis. Format: cell-based.
Assay [8] concerns the target T2, Melatonin receptor type 1B. Description: Displacement of 2-[125I]iodoMLT from human MT2 receptor stably expressed in CHO cells by Cheng-Prusoff equation analysis. The assay is classed as cell-based.

Values joined by “and” are separate entries in the source; they are usually repeats but may differ in a detail not shown here. Equal values may be shown once.

T1 sequence (P48039 whole entry): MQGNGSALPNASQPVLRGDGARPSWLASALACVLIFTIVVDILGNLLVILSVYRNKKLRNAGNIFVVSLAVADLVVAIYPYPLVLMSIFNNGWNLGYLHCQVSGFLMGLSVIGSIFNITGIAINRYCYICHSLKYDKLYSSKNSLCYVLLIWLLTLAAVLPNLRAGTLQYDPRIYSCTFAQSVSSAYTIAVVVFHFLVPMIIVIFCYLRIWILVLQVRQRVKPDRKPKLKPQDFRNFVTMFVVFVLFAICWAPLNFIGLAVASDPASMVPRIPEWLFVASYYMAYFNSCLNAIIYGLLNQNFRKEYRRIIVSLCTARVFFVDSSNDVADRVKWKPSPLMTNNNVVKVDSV

As to `COc1ccc2[nH]c(-c3cccnc3)c(CCNC(C)=O)c2c1`, the Ki in assay [1] is 0.17 nM; in assay [2], 0.0603 nM.
Taken in the same sequence, the figures for `COc1ccc2[nH]c(-c3cccc4ccccc34)c(CCNC(C)=O)c2c1` were 15.5 nM and 0.191 nM.
As for `COc1cccc(N(CCNC(C)=O)c2cccc(CO)c2)c1`, the inhibition constant Ki in assay [3] is greater than 100 nM.
In the case of `COc1ccc2[nH]c(-c3cccc4ncccc34)c(CCNC(C)=O)c2c1`, the Ki is 14.8 nM in assay [1] and 2.69 nM in assay [2].
Turning to `COc1ccc2[nH]c(-c3ccc4ccccc4c3)c(CCNC(C)=O)c2c1`, the inhibition constant (Ki) is 36.3 nM in assay [1] and 1.1 nM in assay [2].
The corresponding values for `COc1ccc2[nH]c(Sc3ccccc3)c(CCNC(C)=O)c2c1` are 0.977 nM and 0.0631 nM.
Take `COc1ccc2[nH]c(-c3ccc(-c4ccccc4)cc3)c(CCNC(C)=O)c2c1`: the Ki in assay [1] was 16.2 nM; in assay [2] it was 5.01 nM.
Turning to `CC(=O)NCCc1c(-c2cccc(O)c2)oc2ccc3c(c12)CCCO3`, the Ki is 0.87 nM in assay [4] and 0.21 nM in assay [5].
In the case of `COc1ccc2[nH]c(Cc3ccccc3)c(CCNC(C)=O)c2c1`, the Ki in assay [6] was 31.6 nM.
For the compound `COc1ccc2[nH]c(-c3ccccc3)c(CCNC(C)=O)c2c1`, the values for the Ki in assay [1] and in assay [2] were 0.0219 nM and 0.038 nM, respectively.
For the compound `COc1ccc2c(c1)c(CCNC(C)=O)c(-c1cccc3ccccc13)n2C`, the Ki in assay [7] was 40.7 nM and 97.7 nM and 33.1 nM; in assay [1], 12 nM and 33.9 nM and 12.9 nM; in assay [8], 0.302 nM and 0.38 nM and 0.288 nM; in assay [2] it was 0.309 nM and 0.575 nM and 0.126 nM.
With `COc1ccc2[nH]c(-c3cccc4[nH]ccc34)c(CCNC(C)=O)c2c1`, the inhibition constant (Ki) in assay [1] was 14.8 nM; in assay [2], 0.295 nM.
Taken in the same sequence, the figures for `COc1ccc2[nH]c(Oc3ccccc3)c(CCNC(C)=O)c2c1` were 11.5 nM and 2.95 nM.
